≈ marks a conversion by molar mass, not a printed value.
What was measured:
[1] = test system: Lactobacillus plantarum Inducia DSM 21379; assay: Antibiotic resistance, E-test MIC; format: cell-based; conditions: for MIC: Lactiplantibacillus plantarum, DSM21379, read-out: MIC (minimal inhibitory concentration); for MIC (minimal inhibitory concentration): E-test strips, L. plantarum Inducia DSM 21379
Protocol: Method. Lactobacillus plantarum Inducia DSM 21379 was tested using antibiotic strips of the E-test (AB Biodisk, Solna).

[2] = test system: Control strain L. plantarum DSM 21380; assay: Antibiotic resistance, E-test MIC, control strain; format: cell-based, Lactobacillus plantarum; conditions: for MIC: Lactiplantibacillus plantarum, DSM21380, E-test strips, read-out: MIC (minimal inhibitory concentration); for MIC (minimal inhibitory concentration): E-test strips
[3] = in vivo, po; cited from earlier work

| Compound | MIC [1] | MIC [2] | MIC (minimal inhibitory concentration) [1] | MIC (minimal inhibitory concentration) [2] | consumed amount absorbed from intestine into bloodstream [3] |
| --- | --- | --- | --- | --- | --- |
| CC1(C)S[C@@H]2[C@H](NC(=O)[C@H](N)c3ccccc3)C(=O)N2[C@H]1C(=O)O [Ampicillin] | 0.19 µg/mL (≈ 0.544 µM) | 0.25 µg/mL (≈ 0.715 µM) |  |  |  |
| O=C(N[C@H](CO)[C@H](O)c1ccc([N+](=O)[O-])cc1)C(Cl)Cl [Chloramphenicol] | 2 µg/mL (≈ 6.19 µM) | 2 µg/mL (≈ 6.19 µM) |  |  |  |
| CCC[C@@H]1C[C@@H](C(=O)N[C@@H]([C@H]2O[C@H](SC)[C@H](O)[C@@H](O)[C@H]2O)[C@H](C)Cl)N(C)C1 [Clindamycin] | 0.016 µg/mL (≈ 0.0376 µM) | 0.032 µg/mL (≈ 0.0753 µM) |  |  |  |
| CC[C@H]1OC(=O)[C@H](C)[C@@H](O[C@H]2C[C@@](C)(OC)[C@@H](O)[C@H](C)O2)[C@H](C)[C@@H](O[C@@H]2O[C@H](C)C[C@H](N(C)C)[C@H]2O)[C@](C)(O)C[C@@H](C)C(=O)[C@H](C)[C@@H](O)[C@]1(C)O [Erytromycin] |  |  | 0.25 µg/mL (≈ 0.341 µM) | 0.19 µg/mL (≈ 0.259 µM) |  |
| NCCCCN [Putrescine] |  |  |  |  | 20% |
| [H]/N=C(/N)N[C@H]1[C@H](O)[C@@H](O)[C@H](O[C@@H]2O[C@@H](C)[C@](O)(C=O)[C@H]2O[C@@H]2O[C@@H](CO)[C@H](O)[C@@H](O)[C@@H]2NC)[C@@H](N/C(N)=N\[H])[C@@H]1O [Streptomycin] | 6 µg/mL (≈ 10.3 µM) | 16 µg/mL (≈ 27.5 µM) |  |  |  |
| CN(C)[C@@H]1C(O)=C(C(N)=O)C(=O)[C@@]2(O)C(O)=C3C(=O)c4c(O)cccc4[C@@](C)(O)[C@H]3C[C@@H]12 [Tetracycline] | 6 µg/mL (≈ 13.5 µM) | 8 µg/mL (≈ 18 µM) |  |  |  |
| Cipro/ofloxacin |  |  | 32 µg/mL | 32 µg/mL |  |
| Gentamicin |  |  | 1 µg/mL | 1.5 µg/mL |  |
